Test results: patent EP0754455A1, “PHARMACEUTICAL COMPOSITIONS BASED ON AMINOMETHYLINDOLES AND THEIR THERAPEUTICAL APPLICATION AS NEUROPROTECTORS IN PARKINSON AND ALZHEIMER DISEASES” (CONSEJO SUPERIOR INVESTIGACIONES CIENTIFICAS (CSIC), priority 1995, dated 1996)

What was measured:
[1] = target: T1, MAO-B (Mus musculus, UniProt Q8BW75); experiment: Ex vivo inhibition of brain MAO-B after i.p. administration
T1 sequence (Q8BW75 1-520): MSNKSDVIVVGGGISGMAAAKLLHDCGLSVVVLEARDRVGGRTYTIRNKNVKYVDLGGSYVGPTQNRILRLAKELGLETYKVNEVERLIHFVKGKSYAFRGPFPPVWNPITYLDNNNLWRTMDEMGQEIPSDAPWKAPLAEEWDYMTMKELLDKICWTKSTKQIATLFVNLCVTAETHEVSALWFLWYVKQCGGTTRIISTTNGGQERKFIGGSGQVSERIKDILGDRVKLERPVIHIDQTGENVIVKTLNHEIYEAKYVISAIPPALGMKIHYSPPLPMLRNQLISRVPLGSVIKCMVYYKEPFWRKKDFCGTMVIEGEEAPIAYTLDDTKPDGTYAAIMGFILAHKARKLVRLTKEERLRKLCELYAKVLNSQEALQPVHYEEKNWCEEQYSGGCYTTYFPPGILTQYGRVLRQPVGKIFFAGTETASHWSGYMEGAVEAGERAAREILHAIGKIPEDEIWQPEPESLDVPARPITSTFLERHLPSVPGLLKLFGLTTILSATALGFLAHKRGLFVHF
Procedure: The pharmacological assays were carried out on C57/BL mice. These animals are sensitive to the induction of the symptomatology of Parkinson's disease through the action of MPTP.
The animals were sacrificed by decapitation after 2 hours and the brains homogenised in potassium phosphate buffer 50 mM, pH 7.2. Determinations were made of the MAO-A and MAO-B activity in each case using radiometric methods.

[2] = target: T2, MAO-A (Homo sapiens, UniProt P21397); experiment: MAO-A inhibition in homogenated human cerebral cortex; type: biochemical
T2 construct: performed using homogenated human cerebral cortex obtained from autopsies; from tissue; host or cells: post-mortem human cerebral cortex homogenate
T2 sequence (P21397 1-527): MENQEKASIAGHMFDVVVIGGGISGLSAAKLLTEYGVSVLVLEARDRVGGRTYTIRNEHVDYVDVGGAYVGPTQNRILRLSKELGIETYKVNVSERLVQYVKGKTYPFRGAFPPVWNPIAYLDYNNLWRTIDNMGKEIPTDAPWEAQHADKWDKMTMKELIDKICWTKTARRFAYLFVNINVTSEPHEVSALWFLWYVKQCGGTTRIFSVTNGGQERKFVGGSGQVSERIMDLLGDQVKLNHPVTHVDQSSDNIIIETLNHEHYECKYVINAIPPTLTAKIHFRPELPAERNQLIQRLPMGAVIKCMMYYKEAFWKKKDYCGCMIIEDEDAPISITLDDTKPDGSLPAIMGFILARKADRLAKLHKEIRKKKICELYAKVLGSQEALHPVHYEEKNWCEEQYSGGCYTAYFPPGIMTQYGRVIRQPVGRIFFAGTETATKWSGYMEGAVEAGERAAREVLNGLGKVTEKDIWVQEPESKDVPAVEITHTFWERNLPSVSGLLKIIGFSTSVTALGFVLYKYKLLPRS
Description: They were provided by Dr. Fco Javier González Oliván (Forensic Anatomic Institute of the Hospital Clínico Provincial in Barcelona).

[3] = target: T3, dopamine uptake carrier (Rattus norvegicus, UniProt P23977); experiment: Dopamine re-uptake in purified synaptosomes of rat brain striatal tissue; type: biochemical, Sprague-Dawley rats; details: substrate concentration 0.1 µM
T3 construct: purified synaptosomes of brain striatal tissue from Sprague-Dawley rats; from tissue; host or cells: Sprague-Dawley rat brain striatum, purified synaptosomes
Procedure: Kinetic studies of dopamine re-uptake were carried out in purified synaptosomes of brain striatal tissue from Sprague-Dawley rats.

[4] = system: MPTP neurotoxin; experiment: Protection against the neurotoxicity of MPTP (striatal DA and DOPAC levels); type: in vivo, mice of the C57/BL species; details: striate, FA-73 3 mg/Kg i.p. 2 h before MPTP HCl 30 mg/Kg i.p., MPTP repeated on day 2, 24 h after last MPTP
Procedure: Two hours later they were administered MPTP HCl (30 mg/Kg i.p.) and this dose was repeated on the second day. Twenty four hours after the last injection of MPTP the animals were sacrificed. The brains were dissected and determinations made of the dopamine (DA) and 3,4-dihydroxyphenylacetic acid (DOPAC) levels in the striate.

[5] = target: T4, MAO-A (Rattus norvegicus, UniProt P21396); experiment: Kinetic parameters of suicide-type inhibition, MAO-A; type: biochemical, Sprague-Dawley rat
T4 construct: human and rat tissue to obtain the isolated forms of monoamine oxidase A and B; from tissue
T4 sequence (P21396 1-526): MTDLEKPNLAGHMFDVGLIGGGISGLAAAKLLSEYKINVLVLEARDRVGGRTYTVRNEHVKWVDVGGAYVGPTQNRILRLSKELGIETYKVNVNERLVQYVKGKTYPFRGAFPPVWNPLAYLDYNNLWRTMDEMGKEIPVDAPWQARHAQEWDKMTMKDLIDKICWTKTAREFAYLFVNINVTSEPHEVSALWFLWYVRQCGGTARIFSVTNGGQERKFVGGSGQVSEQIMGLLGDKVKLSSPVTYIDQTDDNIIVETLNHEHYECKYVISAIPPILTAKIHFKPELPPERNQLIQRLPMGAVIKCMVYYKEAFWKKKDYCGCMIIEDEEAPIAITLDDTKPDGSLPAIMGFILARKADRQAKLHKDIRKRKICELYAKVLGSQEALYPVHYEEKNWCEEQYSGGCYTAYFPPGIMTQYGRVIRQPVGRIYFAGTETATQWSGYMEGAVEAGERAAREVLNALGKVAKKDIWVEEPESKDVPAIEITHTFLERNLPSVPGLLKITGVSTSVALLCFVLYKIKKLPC
Description: Based on the apparent velocity constants of the first order (kapp) obtained for each inhibitor, calculations were made of the K1 and K^1c at (according to the method described by M. Avila et al. 1993, Biochem Pharmac 45, 2231-2237). K1 is the affinity constant of the first stage of the reaction and K1 MAO-A / K1 MAO-B the expression of the selectivity.
K^1cat is the velocity constant for the formation of the covalent irreversible complex during the second stage of the process. To compare the values of these constants towards the two forms of MAO, we express the inhibition efficacy as the ratio K^1cat/K1. The value of these constants (see Tables 2 and 3), is the result of three different experiments, with their corresponding SEM.

T3 sequence (P23977 whole entry): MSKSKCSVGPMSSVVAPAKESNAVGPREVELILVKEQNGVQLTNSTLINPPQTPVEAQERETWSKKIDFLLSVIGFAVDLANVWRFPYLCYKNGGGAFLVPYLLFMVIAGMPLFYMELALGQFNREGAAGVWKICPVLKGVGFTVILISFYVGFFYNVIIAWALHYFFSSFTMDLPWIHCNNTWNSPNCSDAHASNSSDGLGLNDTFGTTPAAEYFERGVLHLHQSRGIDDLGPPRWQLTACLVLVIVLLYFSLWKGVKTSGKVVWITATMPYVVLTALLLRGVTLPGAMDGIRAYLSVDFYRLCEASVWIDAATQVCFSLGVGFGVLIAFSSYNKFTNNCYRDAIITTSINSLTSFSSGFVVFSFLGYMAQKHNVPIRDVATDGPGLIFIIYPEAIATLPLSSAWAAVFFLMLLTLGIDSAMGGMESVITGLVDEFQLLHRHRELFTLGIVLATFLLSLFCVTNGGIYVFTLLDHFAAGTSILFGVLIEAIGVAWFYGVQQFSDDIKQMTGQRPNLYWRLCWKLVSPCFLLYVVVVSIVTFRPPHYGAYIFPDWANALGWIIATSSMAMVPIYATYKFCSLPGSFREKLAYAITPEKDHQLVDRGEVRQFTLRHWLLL

C#CCNCc1cc2cc(OCc3ccccc3)ccc2[nH]1 [FA-73]
crossing of the hematoencephalic barrier ([1]; concluded from brain MAO-B inhibition after 4 mg/Kg i.p. in C57/BL mice): crosses the hematoencephalic barrier
MAO-B ACTIVITY ([1]; mouse brain homogenate 2 hours after i.p., l-deprenyl 10 mg/Kg, tested compound 4 mg/Kg, control 303): 16
IC50 [2]: 20 µM
IC50 [3]: 150 µM
DOPAC ([4]; control 0.98, MPTP alone 0.54): 0.93 ± 0.023 µg/g dry tissue
Dopamine (DA) ([4]; control 10.85, MPTP alone 3.13): 10.48 ± 0.085 µg/g dry tissue
Ki ([5]; MAO-A (A..), affinity constant of the first stage, three experiments ± SEM, read-out: K1): 0.8 µM
K^1cat / K1(10^-3) ([5]; MAO-A, inhibition efficacy): 0.1 10^-3
K^1cat ([5]; MAO-A, velocity constant for formation of the covalent irreversible complex, ± SEM): 0.087 ± 0.006 min⁻¹
